According to ChEMBL document CHEMBL6096735, “Exploring the Ascorbate Requirement of the 2-Oxoglutarate-Dependent Dioxygenases” (J Med Chem, 2025):

Target: Methylcytosine dioxygenase TET2 (Homo sapiens) (UniProt Q6N021)
Experiment: Binding affinity to TET2 (unknown origin) assessed as binding constant

| Kb | SMILES |
| --- | --- |
| 8.7 10^3/M | O=C1O[C@H]([C@H](O)CO)C(O)=C1O |
| 8.7 10^3/M | O=C1O[C@H]([C@@H](O)CO)C(O)=C1O |
